Literature values in US11555010B2, “Diamide antimicrobial agents” (BROWN UNIVERSITY, priority 2019, dated 2023).

Tested on: LT
Details: cited from earlier work

## CC1=N[C@@H]2[C@@H](O)[C@H](O)[C@@H](CO)O[C@@H]2S1 [NAG-thiazoline]
  binding to LT: weak binder
